Values after ≈ are worked out from the molar mass of the structure shown. Where two headings read alike, the source gives them in different places.
Tests used:
[1] = test system: IFNα-induced TYK2/phosphoSTAT1 (Tyr701) in Kit225 T cells; test: Kit225 T cell assay for IFNα-induced TYK2/phosphoSTAT1 activity; format: cell-based, human; settings: Homo sapiens, KIT225, read-out: IC50 IFNα-induced-STAT1 Phosphorylation
Experimental: (§1) The cells were treated with serially diluted compounds for 1 hour and stimulated with 80 ng/mL human recombinant IFNα (R&D Systems) for 15 minutes. The treated cells were then lysed and cellular phosphorylated-STAT1 (Tyr701) levels were measured by AlphaLISA (PerkinElmer, Cat#ALSU-PST1) according to the manufacturer’s instructions.

[2] = test system: IL23-induced TYK2/phosphoSTAT3 (Tyr705) in Kit225 T cells; test: Kit225 T cell assay for IL23-induced TYK2/phosphoSTAT3 activity; format: cell-based, human; settings: Homo sapiens, KIT225, read-out: IC50 IL23-induced-STAT3 Phosphorylation
Experimental: as §1, with “100” for “80”, “IL23” for “IFNα”, “20” for “15”, “phosphorylated-STAT3 (Tyr705)” for “phosphorylated-STAT1 (Tyr701)”, “Cat# ALSU-PST3)” for “Cat#ALSU-PST1)”

[3] = test system: IFNα-induced CXCL10 production in human whole blood; test: IFNα-induced CXCL10 production in human whole blood; format: cell-based
Experimental: Human whole blood [drawn with Ethylenediaminetetraacetic acid (EDTA) as anti-coagulant] was obtained from Zen-Bio Inc. (Durham, NC). […] The plasma was collected for detection of C-X-C motif chemokine 10 (CXCL10, IP10) secretion. CXCL10 was measured by Human CXCL10/IP-10 AlphaLISA Kit (PerkinElmer, #AL259 C/F) according to the manufacturer’s instructions.

[4] = molecular target: T1, TYK2 JH2 pseudokinase domain (Homo sapiens, UniProt P29597); test: KdELECT competition binding assay, TYK2 JH2; settings: isolated TYK2 JH2 domain
T1 construct: purchased Eurofins DiscoverX Corporation (contract assay)
T1 sequence (P29597 589-875 limits assumed): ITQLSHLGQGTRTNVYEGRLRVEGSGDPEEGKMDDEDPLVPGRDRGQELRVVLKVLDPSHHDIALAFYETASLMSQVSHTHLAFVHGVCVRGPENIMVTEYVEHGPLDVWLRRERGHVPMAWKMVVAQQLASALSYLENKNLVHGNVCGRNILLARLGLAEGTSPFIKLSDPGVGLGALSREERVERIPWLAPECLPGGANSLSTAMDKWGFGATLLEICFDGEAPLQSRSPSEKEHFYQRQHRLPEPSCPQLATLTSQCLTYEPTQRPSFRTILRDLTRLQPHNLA
Experimental: (§2) The KdELECT competition assays were performed to test the binding affinity of compounds to the JH1 kinase region or JH2 pseudokinase region in TYK2 or JAK by ligand competition with JH1 or JH2 protein segments. The assay was carried out at Eurofins DiscoverX Corporation following the established standard protocol (DiscoverX, San Diego, CA). In this assay, compounds that bind to the kinase or pseudokinase protein regions prevent the protein binding to the immobilized ligand and reduce the amount of kinase matter captured on the solid surface. […] Dissociation constants (Kds) for test compound-kinase interactions are calculated by measuring the amount of kinase captured on the solid support as a function of the test compound concentration. […] The ligated beads were blocked with excess biotin and washed with blocking buffer to remove unbound ligand and to reduce nonspecific binding. […] All reactions were performed in polypropylene 384-well plates with a final volume of 20 μL. […] The beads were then re-suspended in the elution buffer and incubated at room temperature with shaking for 30 minutes. The kinase concentration in the eluant was measured by qPCR. Two replicates were performed and averaged to obtain the Kd measurement.

TYK2 JH1 kinase domain = molecular target: T2, TYK2 JH1 kinase domain (Homo sapiens, UniProt P29597); test: KdELECT competition binding assay, TYK2 JH1; settings: isolated TYK2 JH1 domain
T2 construct: purchased Eurofins DiscoverX Corporation (contract assay)
T2 sequence (P29597 897-1176 limits assumed): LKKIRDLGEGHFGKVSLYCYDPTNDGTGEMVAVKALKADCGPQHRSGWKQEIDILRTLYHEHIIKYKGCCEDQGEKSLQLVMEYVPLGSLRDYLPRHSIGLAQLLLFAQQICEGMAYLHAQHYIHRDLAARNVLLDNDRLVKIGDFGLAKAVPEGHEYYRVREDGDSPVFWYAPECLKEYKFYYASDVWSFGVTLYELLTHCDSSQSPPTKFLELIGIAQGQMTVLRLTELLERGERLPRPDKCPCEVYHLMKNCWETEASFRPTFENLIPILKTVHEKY
Experimental: as §2

LM T1/2, H = format: in vitro ADME; settings: human, liver microsomes
LM T1/2, R = format: in vitro ADME; settings: rat, liver microsomes
LM T1/2, M = format: in vitro ADME; settings: mouse, liver microsomes
LM T1/2, D = format: in vitro ADME; settings: dog, liver microsomes
LM T1/2, Mk = format: in vitro ADME; settings: monkey, liver microsomes
Solubility (PBS/Fas/Fes) = format: physicochemical
CYP450 1A2 = molecular target: T3, CYP450 1A2 (Homo sapiens, UniProt P05177); test: CYP450 inhibition, 1A2; format: in vitro ADME
T3 sequence (P05177 1-516): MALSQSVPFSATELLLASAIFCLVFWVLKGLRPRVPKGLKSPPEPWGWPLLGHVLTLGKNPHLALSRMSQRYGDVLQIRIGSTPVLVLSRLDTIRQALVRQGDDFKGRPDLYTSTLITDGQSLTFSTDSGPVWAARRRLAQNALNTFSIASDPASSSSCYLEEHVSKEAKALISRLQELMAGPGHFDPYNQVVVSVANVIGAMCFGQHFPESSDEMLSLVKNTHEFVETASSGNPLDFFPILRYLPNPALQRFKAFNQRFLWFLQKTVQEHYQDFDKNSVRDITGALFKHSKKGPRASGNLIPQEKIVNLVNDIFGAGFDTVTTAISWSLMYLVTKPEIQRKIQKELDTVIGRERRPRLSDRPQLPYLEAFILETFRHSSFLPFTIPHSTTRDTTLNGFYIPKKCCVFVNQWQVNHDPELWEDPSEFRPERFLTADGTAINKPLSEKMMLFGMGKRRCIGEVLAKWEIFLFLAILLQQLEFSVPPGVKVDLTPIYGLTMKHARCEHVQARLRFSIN

CYP450 2C9 = CYP450 2C9 (Homo sapiens, UniProt P11712); test: CYP450 inhibition, 2C9; format: in vitro ADME
Chain of CYP450 2C9 (P11712 whole entry): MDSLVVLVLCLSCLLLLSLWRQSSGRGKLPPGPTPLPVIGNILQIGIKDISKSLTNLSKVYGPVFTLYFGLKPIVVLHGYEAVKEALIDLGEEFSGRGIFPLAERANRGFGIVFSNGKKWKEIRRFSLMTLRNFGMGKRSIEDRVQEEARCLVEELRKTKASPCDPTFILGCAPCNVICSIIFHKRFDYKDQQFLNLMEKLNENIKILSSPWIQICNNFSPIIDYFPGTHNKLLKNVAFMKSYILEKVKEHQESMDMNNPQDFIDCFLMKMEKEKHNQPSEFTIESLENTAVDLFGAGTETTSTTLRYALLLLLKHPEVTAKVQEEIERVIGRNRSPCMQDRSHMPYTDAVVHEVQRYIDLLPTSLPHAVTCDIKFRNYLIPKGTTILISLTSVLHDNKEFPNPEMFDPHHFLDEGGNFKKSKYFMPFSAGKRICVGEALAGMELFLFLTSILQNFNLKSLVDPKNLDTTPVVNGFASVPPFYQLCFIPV

CYP450 2D6 = CYP450 2D6 (Homo sapiens, UniProt P10635); test: CYP450 inhibition, 2D6; format: in vitro ADME
Chain of CYP450 2D6 (P10635 whole entry): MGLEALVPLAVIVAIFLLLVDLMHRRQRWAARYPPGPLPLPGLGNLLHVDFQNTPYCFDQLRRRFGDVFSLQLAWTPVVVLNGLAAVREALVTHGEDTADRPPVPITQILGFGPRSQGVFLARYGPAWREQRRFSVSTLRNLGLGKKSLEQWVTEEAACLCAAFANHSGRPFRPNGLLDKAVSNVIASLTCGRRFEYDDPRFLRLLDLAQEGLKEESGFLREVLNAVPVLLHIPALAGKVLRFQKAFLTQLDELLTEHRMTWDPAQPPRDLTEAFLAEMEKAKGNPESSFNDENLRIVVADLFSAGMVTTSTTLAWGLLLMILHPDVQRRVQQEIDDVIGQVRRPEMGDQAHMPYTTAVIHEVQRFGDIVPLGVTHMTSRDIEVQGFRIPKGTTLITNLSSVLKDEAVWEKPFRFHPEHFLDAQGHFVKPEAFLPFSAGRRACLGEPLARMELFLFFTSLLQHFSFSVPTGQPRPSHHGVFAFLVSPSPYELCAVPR

CYP450 3A4 = CYP450 3A4 (Homo sapiens, UniProt P08684); test: CYP450 inhibition, 3A4; format: in vitro ADME; settings: 3A4(m); read-out: CYP450 3A4(m)
Chain of CYP450 3A4 (P08684 whole entry): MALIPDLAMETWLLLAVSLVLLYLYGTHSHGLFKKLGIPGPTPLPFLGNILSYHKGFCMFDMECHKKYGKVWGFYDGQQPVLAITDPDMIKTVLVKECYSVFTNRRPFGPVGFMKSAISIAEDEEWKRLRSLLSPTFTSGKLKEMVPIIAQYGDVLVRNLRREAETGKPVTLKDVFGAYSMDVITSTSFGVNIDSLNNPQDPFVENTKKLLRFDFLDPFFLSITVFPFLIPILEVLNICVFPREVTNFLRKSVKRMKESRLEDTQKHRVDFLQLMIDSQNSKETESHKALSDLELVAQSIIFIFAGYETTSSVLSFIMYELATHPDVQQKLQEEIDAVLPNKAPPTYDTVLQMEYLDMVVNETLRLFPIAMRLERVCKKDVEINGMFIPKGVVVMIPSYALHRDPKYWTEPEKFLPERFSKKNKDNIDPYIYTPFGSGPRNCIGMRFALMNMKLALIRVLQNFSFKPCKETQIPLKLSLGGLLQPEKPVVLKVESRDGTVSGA

CYP450 2C19 = CYP450 2C19 (Homo sapiens, UniProt P33261); test: CYP450 inhibition, 2C19; format: in vitro ADME
Chain of CYP450 2C19 (P33261 whole entry): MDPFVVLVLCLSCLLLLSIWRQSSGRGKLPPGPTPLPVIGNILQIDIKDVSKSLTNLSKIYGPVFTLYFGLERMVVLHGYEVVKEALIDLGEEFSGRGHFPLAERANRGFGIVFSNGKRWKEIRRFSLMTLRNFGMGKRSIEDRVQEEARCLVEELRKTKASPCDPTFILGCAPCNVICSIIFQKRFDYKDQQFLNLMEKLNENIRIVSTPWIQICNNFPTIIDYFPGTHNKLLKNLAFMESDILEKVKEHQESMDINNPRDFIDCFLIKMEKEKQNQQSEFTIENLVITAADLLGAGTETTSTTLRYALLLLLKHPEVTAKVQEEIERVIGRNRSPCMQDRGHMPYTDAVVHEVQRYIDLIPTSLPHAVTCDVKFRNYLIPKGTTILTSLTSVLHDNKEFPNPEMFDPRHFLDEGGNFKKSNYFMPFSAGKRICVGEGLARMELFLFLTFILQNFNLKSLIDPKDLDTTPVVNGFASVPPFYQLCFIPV

GSH = format: in vitro ADME
panel of 98 kinases = test: Kinome screening panel (DiscoverX scanEdge); format: binding; settings: 1 µM; 91 non-mutant kinases
Experimental: For compound selectivity across a multi-kinase panel, compound binding affinity to each kinase or pseudokinase protein region was assessed using the DiscoverX scanEdge screening. Compounds were screened at a concentration of 1,000 nM in competition binding assays at Eurofins DiscoverX Corporation following the established standard protocol (DiscoverX, San Diego, CA), as described previously in the KdELECT competition binding assay. Competition with test compounds for binding to resin conjugated affinity ligand was employed to determine the “hits”, which are identified by measuring the amount of kinase captured in test versus control samples by using a quantitative PCR method that detects the associated DNA label. This measurement assesses compound selectivity against a panel of 98 kinases including kinases from the protein kinase A, G, and C family group (AGC), Ca^2+/calmodulin-dependent protein kinase class of enzymes (CAMK), group of cyclin-dependent kinase (CDK), mitogen-activated protein kinase (MAPK), glycogen synthase kinase (GSK) and CDC-like kinase (CLK) (CMGC), Casein kinase 1 (CK1), group of Ste 7, Ste 11 and Ste 20 kinases (STE), Tyrosine Kinases (TK), Tyrosine Kinase-Like group (TKL), lipid, and atypical kinase families, and other mutant forms.

[5] = Homo sapiens, read-out: IFNa-induced-CXCL10 Production in Human Whole Blood IC50, Average
[6] = Homo sapiens, read-out: IFNa-induced-CXCL10 Production in Human Whole Blood IC50, Donor 1
[7] = Homo sapiens, read-out: IFNa-induced-CXCL10 Production in Human Whole Blood IC50, Donor 2
[8] = Homo sapiens, read-out: IFNa-induced-CXCL10 Production in Human Whole Blood IC50, Donor 3

Work on `CC[C@@H]1CN(C(=O)NCC(F)(F)F)C[C@@H]1c1cnc2cnc3[nH]ccc3n12` [Upadacitinib] yielded an IC50 [1] of 7 nM, an IC50 [2] of 22 nM and an IC50 [3, 5] of 120 nM. It also gave an IC50 [3, 6] of 130 nM, an IC50 [3, 7] of 110 nM and an IC50 [3, 8] of 130 nM.
Work on `N#CC[C@H](C1CCCC1)n1cc(-c2ncnc3[nH]ccc23)cn1` [Ruxolitinib] yielded an IC50 [1] of 12 nM, an IC50 [2] of 3 nM and an IC50 [3, 5] of 1900 nM. The IC50 [3, 6] was 2100 nM, the IC50 [3, 7] was 2800 nM and the IC50 [3, 8] was 740 nM.
`Cn1cc(-c2cn3nccc3c(-c3cnn([C@]4(CC#N)C[C@@H](C#N)C4)c3)n2)cn1` [Ropsacitinib] showed an IC50 ([3]; human whole blood, IFNα 16 hours; read-out: TYK2-associated IFNα-induced-CXCL10 Production in Human Whole Blood: IC50) of 2000 ± 960 nM.
For `CNC(=O)c1nnc(NC(=O)C2CC2)c2[nH]c(-c3ccccc3OC)cc12` [SHR2178], the Kd [4] was 0.34 nM, the Kd (TYK2 JH1 kinase domain) was > 20000 nM and the half-life (LM T1/2, H) was 34 min. The half-life (LM T1/2, R) was 24 min, the half-life (LM T1/2, M) was 55 min and the half-life (LM T1/2, D) was 40 min. It also gave a half-life (LM T1/2, Mk) of 99 min, a solubility (Solubility (PBS/Fas/Fes); FaSSIF, read-out: Solubility, Fas) of 1.7 µM (≈ 0.621 µg/mL) and a solubility (Solubility (PBS/Fas/Fes); FeSSIF (Fes [sic]), fessif, read-out: Solubility, Fes) of 3.5 µM (≈ 1.28 µg/mL). The solubility (Solubility (PBS/Fas/Fes); PBS, aqueous buffer, read-out: Solubility, PBS) was 0.1 µM (≈ 0.0365 µg/mL), the IC50 (CYP450 1A2) was 4000 nM and the IC50 (CYP450 2C9) was 30000 nM. It also gave an IC50 (CYP450 2D6) of 30000 nM, an IC50 (CYP450 3A4) of 30000 nM and an IC50 (CYP450 2C19) of 30000 nM. The GSH (GSH) was “negative”.
Work on `O=C(Nc1nc2cccc(-c3ccc(CN4CCS(=O)(=O)CC4)cc3)n2n1)C1CC1` [Filgotinib] yielded an IC50 [1] of 250 nM, an IC50 [2] of 3800 nM and an IC50 ([3]; Homo sapiens; average of Donor 1-3; read-out: IFNa-induced-CXCL10 Production in Human Whole Blood IC50, Average) of 730 nM. It also gave an IC50 ([3]; Homo sapiens; read-out: IFNa-induced-CXCL10 Production in Human Whole Blood IC50, Donor 1) of 770 nM, an IC50 ([3]; Homo sapiens; read-out: IFNa-induced-CXCL10 Production in Human Whole Blood IC50, Donor 2) of 790 nM and an IC50 ([3]; Homo sapiens; read-out: IFNa-induced-CXCL10 Production in Human Whole Blood IC50, Donor 3) of 630 nM.
For `CNC(=O)c1cnc(Nc2ccc(N3CCC3)cn2)cc1Nc1ccccc1S(C)(=O)=O` [SHR1274], the Kd [4] was 0.053 nM, the “No. of Hits S (1)” value (panel of 98 kinases) was 1 and the “No. of Hits S (10)” value (panel of 98 kinases) was 1. The “No. of Hits S (35)” value (panel of 98 kinases) was 2.
Compound `[2H]C([2H])([2H])NC(=O)c1nnc(NC(=O)C2CC2)cc1Nc1cccc(-c2nc3c(s2)CN(S(C)(=N)=O)C3)c1OC` (stereo not drawn) [SHR3110] has an IC50 [1] of 16 nM, an IC50 [2] of 24 nM and an IC50 [3, 5] of 570 nM. The IC50 [3, 6] was 480 nM, the IC50 [3, 7] was 710 nM and the IC50 [3, 8] was 520 nM.
